Experimental data from US6916798B2, “Inhibitors of GSK-3 and uses thereof” (Vertex Pharmaceuticals Incorporated, priority 2001, dated 2005).

Experiments:
Format in all cases: biochemical
GSK-3β (AA 1-420) = target: T1, GSK-3β (AA 1-420) (Homo sapiens, UniProt P49841); assay: Ki determination for the inhibition of GSK-3, standard coupled enzyme system; details: 20 μM ATP, 300 μM peptide, 20 nM GSK-3β, 30° C.; read-out: Ki values for GSK-3
T1 construct: GSK-3β (AA 1-420)
Experimental: Final substrate concentrations in the assay were 20 μM ATP (Sigma Chemicals, St Louis, Mo.) and 300 μM peptide (HSSPHQS(PO3H2)EDEEE, American Peptide, Sunnyvale, Calif.). Reactions were carried out at 30° C. and 20 nM GSK-3β. Final concentrations of the components of the coupled enzyme system were 2.5 mM phosphoenolpyruvate, 300 μM NADH, 30 μg/ml pyruvate kinase and 10 μg/ml lactate dehydrogenase.
An assay stock buffer solution was prepared containing all of the reagents listed above with the exception of ATP and the test compound of interest. The assay stock buffer solution (175 μl) was incubated in a 96 well plate with 5 μl of the test compound of interest at final concentrations spanning 0.002 μM to 30 μM at 30 ° C. for 10 min. […] The reaction was initiated by the addition of 20 μl of ATP (final concentration 20 μM). Rates of reaction were obtained using a Molecular Devices Spectramax plate reader (Sunnyvale, Calif.) over 10 min at 30° C. The Ki values were determined from the rate data as a function of inhibitor concentration.

Aurora-2 = target: T2, Aurora-2 (Homo sapiens, UniProt O14965); assay: Ki determination for the inhibition of Aurora-2, standard coupled enzyme assay; details: 70 nM Aurora-2, 800 μM peptide LRRASLG, 30° C.
T2 sequence (O14965 1-403): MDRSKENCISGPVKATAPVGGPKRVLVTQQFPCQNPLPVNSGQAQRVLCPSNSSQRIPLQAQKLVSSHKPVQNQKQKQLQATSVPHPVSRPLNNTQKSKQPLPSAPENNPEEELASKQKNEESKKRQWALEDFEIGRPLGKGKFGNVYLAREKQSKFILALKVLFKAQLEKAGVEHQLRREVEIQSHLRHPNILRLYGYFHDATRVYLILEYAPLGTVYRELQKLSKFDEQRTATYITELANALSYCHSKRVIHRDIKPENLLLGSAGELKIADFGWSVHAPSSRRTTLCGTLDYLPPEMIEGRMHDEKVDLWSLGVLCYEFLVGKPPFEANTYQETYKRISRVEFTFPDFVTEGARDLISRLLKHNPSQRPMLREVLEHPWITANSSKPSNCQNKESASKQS
Experimental: Compounds were screened in the following manner for their ability to inhibit Aurora-2 using a standard coupled enzyme assay (Fox et al. (1998) Protein Sci. 7, 2249).
(§1) To an assay stock buffer solution containing 0.1M HEPES 7.5, 10 mM MgCl2, 1 mM DTT, 25 mM NaCl, 2.5 mM phosphoenolpyruvate, […], 30 mg/ml pyruvate kinase, 10 mg/ml lactate dehydrogenase, 40 mM ATP, and 800 μM peptide (LRRASLG, American Peptide, Sunnyvale, Calif.) was added a DMSO solution of a compound of the present invention to a final concentration of 30 μM. The resulting mixture was incubated at 30° C. for 10 min. The reaction was initiated by the addition of 10 μL of Aurora-2 stock solution to give a final concentration of 70 nM in the assay. The rates of reaction were obtained by monitoring absorbance at 340 nm over a 5 minute read time at 30° C. using a BioRad Ultramark plate reader (Hercules, Calif.). The Ki values were determined from the rate data as a function of inhibitor concentration.

CDK-2/Cyclin A [1] = target: T3, CDK-2/Cyclin A (Homo sapiens, UniProt P24941); assay: Inhibition of CDK-2, standard coupled enzyme assay; details: 25 nM CDK-2/Cyclin A, 100 μM peptide, 30° C.
Experimental: Compounds were screened in the following manner for their ability to inhibit CDK-2 using a standard coupled enzyme assay (Fox et al (1998) Protein Sci 7, 2249).
as §1, with “[…], […]” for “dehydrogenase, 40”, “and 100” for “and 800”, “peptide ([…],” for “peptide (LRRASLG,”, “of CDK-2/Cyclin A” for “of Aurora-2”, “of 25” for “of 70”, “a 5-minute” for “a 5 minute”

CDK-2/Cyclin A [2] = target: T3, CDK-2/Cyclin A; assay: Inhibition of CDK-2, standard coupled enzyme assay; details: for inhibition at 2 µM: 2 μM compound; for inhibition at 10 µM: read-out: CDK-2 % inhibition @ 10 μM, 10 μM compound

T1 sequence (P49841 whole entry, the tested form may be a part): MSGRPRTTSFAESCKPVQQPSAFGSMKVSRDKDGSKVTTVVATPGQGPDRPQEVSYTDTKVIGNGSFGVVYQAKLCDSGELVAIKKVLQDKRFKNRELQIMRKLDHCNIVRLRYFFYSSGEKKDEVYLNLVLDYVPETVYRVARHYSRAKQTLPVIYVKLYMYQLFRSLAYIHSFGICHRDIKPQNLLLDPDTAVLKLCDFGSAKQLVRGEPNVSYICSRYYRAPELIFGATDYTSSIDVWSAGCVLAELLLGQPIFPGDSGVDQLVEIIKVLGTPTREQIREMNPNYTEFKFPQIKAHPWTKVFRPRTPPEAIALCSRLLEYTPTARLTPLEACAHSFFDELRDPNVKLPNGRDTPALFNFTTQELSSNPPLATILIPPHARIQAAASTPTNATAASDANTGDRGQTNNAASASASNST

Compound | Ki (GSK-3β (AA 1-420)) [nM] | Ki (Aurora-2) [nM] | Ki (CDK-2/Cyclin A [1]) [nM] | inhibition at 2 µM (CDK-2/Cyclin A [2]) [%] | inhibition at 10 µM (CDK-2/Cyclin A [2]) [%]
COc1ccc(C2=NNC(=O)C2=CNc2ccc3c(c2)NCC3)cc1 [Compound 96] | 100 to 1000 | – | 1000 to 20000 | – | –
COc1ccc(C2=NNC(=O)C2=CNc2cccc(S(N)(=O)=O)c2)cc1OC [Compound 95, 3-{[3-(3,4-Dimethoxy-phenyl)-5-oxo-1,5-dihydro-pyrazol-4-ylidenemethyl]-amino}-benzenesulfonamide] | 100 to 1000 | – | 1000 to 20000 | – | –
COc1cc(C2=NNC(=O)C2=NNc2ccc(N3CCOCC3)cc2)ccc1OCc1ccccc1 [Compound 119, 5-(4-Benzyloxy-3-methoxy-phenyl)-4-[(4-morpholin-4-yl-phenyl)-hydrazono]-2,4-dihydro-pyrazol-3-one] | – | < 100 | 1000 to 20000 | – | –
COc1ccc(C2=NNC(=O)C2=CNc2ccc(OC)c(O)c2)cc1 [Compound 98] | < 100 | – | 100 to 1000 | – | –
COc1ccc(C2=NNC(=O)C2=CNc2ccc(Oc3ccccc3)cc2)cc1 [Compound 91] | 100 to 1000 | – | 1000 to 20000 | – | –
CCN(CCO)c1ccc(NN=C2C(=O)NN=C2c2ccc(OCc3ccccc3)c(OC)c2)cc1 [Compound 118, 5-(4-Benzyloxy-3-methoxy-phenyl)-4-({4-[ethyl-(2-hydroxy-ethyl)-amino]-phenyl}-hydrazono)-2,4-dihydro-pyrazol-3-one] | – | < 100 | 1000 to 20000 | – | –
COc1ccc(C2=NNC(=O)C2=CNc2cccc(OCc3ccccc3)c2)cc1OC [Compound 92, 4-[(3-Benzyloxy-phenylamino)-methylene]-5-(3,4-dimethoxy-phenyl)-2,4-dihydro-pyrazol-3-one] | 100 to 1000 | – | 1000 to 20000 | – | –
COc1ccc(C2=NNC(=O)C2=CNc2cccc(C(=O)c3ccccc3)c2)cc1 [Compound 93] | 100 to 1000 | – | 1000 to 20000 | – | –
COc1ccc(C2=NNC(=O)C2=NNc2ccc(OCCCN(C)CCO)c(-c3ccccc3)c2)cc1OC [Compound 120, 5-(3,4-dimethoxy-phenyl)-4-[(6-{3-[(2-hydroxy-ethyl)-methyl-amino]-propoxy}-biphenyl-3-yl)-hydrazono]-2,4-dihydro-pyrazol-3-one] | < 100 | – | 1000 to 20000 | – | –
COc1ccc(C2=NNC(=O)C2=CNc2ccc3c(c2)N(C(C)=O)CC3)cc1 [Compound 97] | < 100 | – | 1000 to 20000 | – | –
COc1cccc(C2=NNC(=O)/C2=N\Nc2ccc(N3CCOCC3)cc2)c1 [Compound 62] | < 100 | 100 to 1000 | – | – | –
COc1ccc(C2=NNC(=O)/C2=N\Nc2ccc(N3CCOCC3)cc2)cc1 [Compound 60] | < 100 | 100 to 1000 | – | – | –
CCOc1ccc(C2=NNC(=O)C2=NNc2ccc(N3CCOCC3)cc2)cc1OCC [Compound 116, 5-(3,4-Diethoxy-phenyl)-4-[(4-morpholin-4-yl-phenyl)-hydrazono]-2,4-dihydro-pyrazol-3-one] | – | < 100 | 1000 to 20000 | – | –
O=C1NN=C(c2ccccn2)/C1=N/Nc1ccccc1Cl [Compound 14] | 100 to 1000 | – | – | – | –

Results, then the molecule that gave them:

Ki (GSK-3β (AA 1-420)) [nM] | Ki (Aurora-2) [nM] | Ki (CDK-2/Cyclin A [1]) [nM] | inhibition at 2 µM (CDK-2/Cyclin A [2]) [%] | inhibition at 10 µM (CDK-2/Cyclin A [2]) [%] | Compound
< 100 | < 100 | – | – | – | CCN(CC)c1ccc(N/N=C2\C(=O)NN=C2c2ccc(OC)c(OC)c2)cc1 [Compound 37]
< 100 | < 100 | – | – | – | COc1ccc(C2=NNC(=O)/C2=N\Nc2ccc(N(C)C)cc2)cc1OC [Compound 52]
< 100 | < 100 | – | – | – | CCN(CCO)c1ccc(NN=C2C(=O)NN=C2c2cc(OC)c(OC)c(OC)c2)cc1 [Compound 223]
– | < 100 | 1000 to 20000 | – | – | CCOc1ccc(C2=NNC(=O)C2=NNc2ccc(N(CC)CCO)cc2)cc1OCC [Compound 115, 5-(3,4-Diethoxy-phenyl)-4-({4-[ethyl-(2-hydroxy-ethyl)-amino]-phenyl}-hydrazono)-2,4-dihydro-pyrazol-3-one]
< 100 | < 100 | – | – | – | COc1ccc(N/N=C2\C(=O)NN=C2c2cc(OC)c(OC)c(OC)c2)cc1 [Compound 22]
< 100 | 100 to 1000 | – | – | – | COc1ccc(C2=NNC(=O)/C2=N\Nc2ccc(C#N)cc2)cc1OC [Compound 58]
– | 100 to 1000 | 1000 to 20000 | – | – | CCN(CC)c1ccc(NN=C2C(=O)NN=C2c2ccc(OCc3ccccc3)c(OC)c2)cc1 [Compound 117, 5-(4-Benzyloxy-3-methoxy-phenyl)-4-[(4-diethylamino-phenyl)-hydrazono]-2,4-dihydro-pyrazol-3-one]
< 100 | 100 to 1000 | – | 82 | 95 | COc1ccc(NN=C2C(=O)NN=C2c2ccc(OC)cc2)cc1 [Compound 46]
< 100 | < 100 | – | – | – | COc1cccc(N/N=C2\C(=O)NN=C2c2ccc(OC)c(OC)c2)c1 [Compound 73]
< 100 | – | 1000 to 20000 | – | – | COc1ccc(C2=NNC(=O)C2=NNc2ccc(OC)c(-c3cccnc3)c2)cc1OC [Compound 106, 5-(3,4-Dimethoxy-phenyl)-4-[(4-methoxy-3-pyridin-3-yl-phenyl)-hydrazono]-2,4-dihydro-pyrazol-3-one]
< 100 | < 100 | – | – | – | COc1ccc(N/N=C2\C(=O)NN=C2c2ccc(OC)c(OC)c2)cc1 [Compound 47]
< 100 | – | – | 87 | 94 | COc1ccc(C2=NNC(=O)C2=NNc2ccc(Cl)cc2)cc1OC [Compound 44]
< 100 | < 100 | – | – | – | COc1cc(C2=NNC(=O)C2=NNc2ccc(Cl)cc2)cc(OC)c1OC [Compound 23]
< 100 | 100 to 1000 | – | – | – | COc1ccc(C2=NNC(=O)/C2=N\Nc2ccc(Cl)cc2)cc1 [Compound 43]
< 100 | < 100 | – | – | – | COc1ccc(C2=NNC(=O)/C2=N\Nc2ccc(N3CCOCC3)cc2)cc1OC [Compound 61]
< 100 | 100 to 1000 | – | – | – | COc1ccc(C2=NNC(=O)/C2=N\Nc2cccc(Cl)c2)cc1OC [Compound 70]
– | < 100 | 1000 to 20000 | – | – | CCOc1ccc(C2=NNC(=O)C2=NNc2ccc(N(CC)CC)cc2)cc1OCC [Compound 114, 5-(3,4-Diethoxy-phenyl)-4-[(4-diethylamino-phenyl)-hydrazono]-2,4-dihydro-pyrazol-3-one]
< 100 | – | 1000 to 20000 | – | – | COc1ccc(C2=NNC(=O)C2=NNc2ccc(OCCCN(C)C)c(-c3ccccc3)c2)cc1OC [Compound 121, 5-(3,4-Dimethoxy-phenyl)-4-{[6-(3-dimethylamino-propoxy)-biphenyl-3-yl]-hydrazono}-2,4-dihydro-pyrazol-3-one]
< 100 | < 100 | – | – | – | COc1ccc(C2=NNC(=O)C2=NNc2ccc(Oc3ccccc3)cc2)cc1OC [Compound 86]
< 100 | – | – | – | – | COc1cccc(C2=NNC(=O)/C2=N\Nc2cccc(Cl)c2)c1 [Compound 71]
< 100 | – | – | – | – | COc1ccc(C2=NNC(=O)C2=NNc2ccc(-c3ccccc3)cc2)cc1OC [Compound 80]
